Data as given in patent publication US11427615B2, “Peptide compound and application thereof, and composition containing peptide compound” (XDCEXPLORER (SHANGHAI) CO., LTD., priority 2017, dated 2022).
Starred links: 1 amine or outer side, 2 acyl side, 3 side chain; linkers in the order of their positions; H or OH if unused. Positions of bridges follow the written chain, without caps; N, C: chain ends. Non-standard residues stand in square brackets, D forms with d. Residues, ends and D or L forms follow the SMILES beside them. cPrCO(1-aminomethyl) = O=C(C1(CN[*:1])CC1)[*:2]; Phe(4-tBu) = CC(C)(C)c1ccc(C[C@H](N)C(=O)O)cc1; PEG8 = NCCOCCOCCOCCOCCOCCOCCOCCOCCC(=O)O; Phe(4-Cl) = N[C@@H](Cc1ccc(Cl)cc1)C(=O)O; Dip = N[C@H](C(=O)O)C(c1ccccc1)c1ccccc1; Ala(2-furyl) = N[C@@H](Cc1ccco1)C(=O)O; Phe(4-F) = N[C@@H](Cc1ccc(F)cc1)C(=O)O; Phe(4-Me) = Cc1ccc(C[C@H](N)C(=O)O)cc1; Pro(4,4-F2) = O=C(O)[C@@H]1CC(F)(F)CN1; Pro(4R-NH2) = N[C@H]1CN[C@H](C(=O)O)C1; dAla(2-furyl) = N[C@H](Cc1ccco1)C(=O)O; 2Nal = N[C@@H](Cc1ccc2ccccc2c1)C(=O)O; Arg(Me) = CNC(=N)NCCC[C@H](N)C(=O)O; Hyp = O=C(O)[C@@H]1C[C@@H](O)CN1; 3Pal = N[C@@H](Cc1cccnc1)C(=O)O; 2Thi = N[C@@H](Cc1cccs1)C(=O)O; NMeL = CN[C@@H](CC(C)C)C(=O)O; S5 = C=CCCC[C@](C)(N)C(=O)O; Pip = O=C(O)[C@@H]1CCCCN1; Aze = O=C(O)[C@@H]1CCN1; azaGly = NNC(=O)O; βAla = NCCC(=O)O

The molecules below were run against T1, human kiss1 receptor (GPR54) (Homo sapiens, UniProt Q969F8) (assay: Kiss1 receptor (GPR54) binding activity of agonists, FRET detection in NFAT-bla CHO-K1 cells). Conditions: GPR54; measured according to the method of effect Embodiment 1; preliminary data; read-out: Preliminary measurement data (GPR54) EC50.
T1 construct: host or cells: NFAT-bla CHO-K1 cells (Chinese hamster ovary), purchased recombinant cell line
T1 sequence (Q969F8 whole entry): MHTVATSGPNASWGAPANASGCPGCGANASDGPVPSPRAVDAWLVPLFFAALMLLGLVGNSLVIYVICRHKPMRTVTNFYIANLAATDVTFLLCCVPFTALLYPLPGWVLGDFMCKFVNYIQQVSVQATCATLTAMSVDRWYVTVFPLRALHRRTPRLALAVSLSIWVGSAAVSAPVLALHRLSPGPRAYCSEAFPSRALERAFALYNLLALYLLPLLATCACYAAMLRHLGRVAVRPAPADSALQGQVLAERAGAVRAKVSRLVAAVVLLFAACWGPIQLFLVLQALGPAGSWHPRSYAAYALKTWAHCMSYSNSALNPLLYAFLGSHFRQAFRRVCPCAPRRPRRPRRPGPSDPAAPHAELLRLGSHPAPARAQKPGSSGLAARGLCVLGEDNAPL
Assay type: cell-based

Row | EC50 | Structure (SMILES)
1 | 0.3 nM | CNC(=N)NCCC[C@H](NC(=O)[C@H](CC(C)C)NC(=O)NNC(=O)[C@H](Cc1ccccc1)NC(=O)[C@@H](NC(=O)[C@H](CC(N)=O)NC(=O)[C@@H]1C[C@@H](O)CN1C(=O)[C@H](Cc1cccnc1)NC(C)=O)[C@@H](C)O)C(=O)N[C@@H](Cc1c[nH]c2ccccc12)C(N)=O [YA-69, Ac-3Pal-Hyp-Asn-Thr-Phe-azaGly-Leu-Arg(Me)-Trp-NH2] (Ac-[3Pal][Hyp]NTF[azaGly]L[Arg(Me)]W-NH2)
2 | 0.058 nM | CNC(=N)NCCC[C@H](NC(=O)[C@H](CC(C)C)NC(=O)NNC(=O)[C@H](Cc1ccccc1)NC(=O)[C@@H](NC(=O)[C@H](CC(N)=O)NC(=O)[C@@H]1C[C@@H](O)CN1C(=O)[C@H](Cc1ccc(F)cc1)NC(C)=O)[C@@H](C)O)C(=O)N[C@@H](Cc1c[nH]c2ccccc12)C(N)=O [YA-71, Ac-Phe(4-F)-Hyp-Asn-Thr-Phe-azaGly-Leu-Arg(Me)-Trp-NH2] (Ac-[Phe(4-F)][Hyp]NTF[azaGly]L[Arg(Me)]W-NH2)
3 | 5.55 nM | CNC(=N)NCCC[C@H](NC(=O)[C@H](CC(C)C)NC(=O)NNC(=O)[C@H](Cc1ccccc1)NC(=O)[C@@H](NC(=O)[C@H](CC(N)=O)NC(=O)[C@@H]1C[C@@H](O)CN1C(=O)[C@H](Cc1ccc(Cl)cc1)NC(C)=O)[C@@H](C)O)C(=O)N[C@@H](Cc1c[nH]c2ccccc12)C(N)=O [YA-72, Ac-Phe(4-Cl)-Hyp-Asn-Thr-Phe-azaGly-Leu-Arg(Me)-Trp-NH2] (Ac-[Phe(4-Cl)][Hyp]NTF[azaGly]L[Arg(Me)]W-NH2)
4 | 1.32 nM | CNC(=N)NCCC[C@H](NC(=O)[C@H](CC(C)C)NC(=O)NNC(=O)[C@H](Cc1ccccc1)NC(=O)[C@@H](NC(=O)[C@H](CC(N)=O)NC(=O)[C@@H]1C[C@@H](O)CN1C(=O)[C@H](Cc1ccc(OC)cc1)NC(C)=O)[C@@H](C)O)C(=O)N[C@@H](Cc1c[nH]c2ccccc12)C(N)=O [YA-73, Ac-Tyr(Me)-Hyp-Asn-Thr-Phe-azaGly-Leu-Arg(Me)-Trp-NH2] (Ac-Y(Me)[Hyp]NTF[azaGly]L[Arg(Me)]W-NH2)
5 | 0.921 nM | CNC(=N)NCCC[C@H](NC(=O)[C@H](CC(C)C)NC(=O)NNC(=O)[C@H](Cc1ccccc1)NC(=O)[C@@H](NC(=O)[C@H](CC(N)=O)NC(=O)[C@@H]1C[C@@H](O)CN1C(=O)[C@H](Cc1ccc(C)cc1)NC(C)=O)[C@@H](C)O)C(=O)N[C@@H](Cc1c[nH]c2ccccc12)C(N)=O [YA-74, Ac-Phe(4-Me)-Hyp-Asn-Thr-Phe-azaGly-Leu-Arg(Me)-Trp-NH2] (Ac-[Phe(4-Me)][Hyp]NTF[azaGly]L[Arg(Me)]W-NH2)
6 | 18.7 nM | CNC(=N)NCCC[C@H](NC(=O)[C@H](CC(C)C)NC(=O)NNC(=O)[C@H](Cc1ccccc1)NC(=O)[C@@H](NC(=O)[C@H](CC(N)=O)NC(=O)[C@@H]1C[C@@H](O)CN1C(=O)[C@H](Cc1ccc(C(C)(C)C)cc1)NC(C)=O)[C@@H](C)O)C(=O)N[C@@H](Cc1c[nH]c2ccccc12)C(N)=O [YA-75, Ac-Phe(4-tBu)-Hyp-Asn-Thr-Phe-azaGly-Leu-Arg(Me)-Trp-NH2] (Ac-[Phe(4-tBu)][Hyp]NTF[azaGly]L[Arg(Me)]W-NH2)
7 | 0.007 nM | CNC(=N)NCCC[C@H](NC(=O)[C@H](CC(C)C)NC(=O)NNC(=O)[C@H](Cc1ccccc1)NC(=O)[C@@H](NC(=O)[C@H](CC(N)=O)NC(=O)[C@@H]1CC(F)(F)CN1C(=O)[C@@H](Cc1ccc(O)cc1)NC(C)=O)[C@@H](C)O)C(=O)N[C@@H](Cc1c[nH]c2ccccc12)C(N)=O [YA-80, Ac-D-Tyr-Pro(diF)-Asn-Thr-Phe-azaGly-Leu-Arg(Me)-Trp-NH2] (Ac-[dY][Pro(4,4-F2)]NTF[azaGly]L[Arg(Me)]W-NH2)
8 | 0.011 nM | CNC(=N)NCCC[C@H](NC(=O)[C@H](CC(C)C)NC(=O)NNC(=O)[C@H](Cc1ccccc1)NC(=O)[C@@H](NC(=O)[C@H](CC(N)=O)NC(=O)[C@@H]1C[C@@H](O)CN1C(=O)[C@@H](Cc1ccc(O)cc1)NC(C)=O)[C@@H](C)O)C(=O)N[C@@H](Cc1ccc2ccccc2c1)C(N)=O [YA-81, Ac-D-Tyr-Hyp-Asn-Thr-Phe-azaGly-Leu-Arg(Me)-2Nal-NH2] (Ac-[dY][Hyp]NTF[azaGly]L[Arg(Me)][2Nal]-NH2)
9 | 2.79 nM | CNC(=N)NCCC[C@H](NC(=O)[C@H](CC(C)C)N(C)C(=O)CCNC(=O)[C@H](Cc1ccccc1)NC(=O)[C@@H](NC(=O)[C@H](CC(N)=O)NC(=O)[C@@H]1C[C@@H](O)CN1C(=O)[C@@H](Cc1ccc(O)cc1)NC(C)=O)[C@@H](C)O)C(=O)N[C@@H](Cc1c[nH]c2ccccc12)C(N)=O [YA-82, Ac-(D-Tyr)-Hyp-Asn-Thr-Phe-BetaAla-(NMe-Leu)-Arg(Me)-Trp-NH2] (Ac-[dY][Hyp]NTF[βAla][NMeL][Arg(Me)]W-NH2)
10 | 0.008 nM | CNC(=N)NCCC[C@H](NC(=O)[C@H](CC(C)C)NC(=O)NNC(=O)[C@H](Cc1ccccc1)NC(=O)[C@@H](NC(=O)[C@H](CC(N)=O)NC(=O)[C@@H]1C[C@@H](N)CN1C(=O)[C@@H](Cc1ccc(O)cc1)NC(C)=O)[C@@H](C)O)C(=O)N[C@@H](Cc1c[nH]c2ccccc12)C(N)=O [YA-83, Ac-D-Tyr-Pro(4-NH2)-Asn-Thr-Phe-azaGly-Leu-Arg(Me)-Trp-NH2] (Ac-[dY][Pro(4R-NH2)]NTF[azaGly]L[Arg(Me)]W-NH2)
11 | 0.026 nM | CNC(=N)NCCC[C@H](NC(=O)[C@H](CC(C)C)NC(=O)NNC(=O)[C@H](Cc1ccccc1)NC(=O)[C@@H](NC(=O)[C@H](CC(N)=O)NC(=O)[C@@H]1CCCCN1C(=O)[C@@H](Cc1ccc(O)cc1)NC(C)=O)[C@@H](C)O)C(=O)N[C@@H](Cc1c[nH]c2ccccc12)C(N)=O [YA-85, Ac-D-Tyr-(S-Pip)-Asn-Thr-Phe-azaGly-Leu-Arg(Me)-Trp-NH2] (Ac-[dY][Pip]NTF[azaGly]L[Arg(Me)]W-NH2)
12 | 0.19 nM | CNC(=N)NCCC[C@H](NC(=O)[C@H](CC(C)C)NC(=O)NNC(=O)[C@H](Cc1ccccc1)NC(=O)[C@@H](NC(=O)[C@H](CC(N)=O)NC(=O)[C@@H]1C[C@@H](O)CN1C(=O)[C@@H](NC(C)=O)C(c1ccccc1)c1ccccc1)[C@@H](C)O)C(=O)N[C@@H](Cc1c[nH]c2ccccc12)C(N)=O [YA-132, Ac-Ala(dip)-Hyp-Asn-Thr-Phe-azaGly-Leu-Arg(Me)-Trp-NH2] (Ac-[Dip][Hyp]NTF[azaGly]L[Arg(Me)]W-NH2)
13 | 0.023 nM | CNC(=N)NCCC[C@H](NC(=O)[C@H](CC(C)C)NC(=O)NNC(=O)[C@H](Cc1ccccc1)NC(=O)[C@H](Cc1ccco1)NC(=O)[C@H](CC(N)=O)NC(=O)[C@@H]1C[C@@H](O)CN1C(=O)[C@@H](Cc1ccc(O)cc1)NC(C)=O)C(=O)N[C@@H](Cc1c[nH]c2ccccc12)C(N)=O [YA-143, Ac-D-Tyr-Hyp-Asn-2Fua-Phe-azaGly-Leu-Arg(Me)-Trp-NH2] (Ac-[dY][Hyp]N[Ala(2-furyl)]F[azaGly]L[Arg(Me)]W-NH2)
14 | 0.201 nM | CNC(=N)NCCC[C@H](NC(=O)[C@H](CC(C)C)NC(=O)NNC(=O)[C@H](Cc1ccccc1)NC(=O)[C@H](Cc1cccs1)NC(=O)[C@H](CC(N)=O)NC(=O)[C@@H]1C[C@@H](O)CN1C(=O)[C@@H](Cc1ccc(O)cc1)NC(C)=O)C(=O)N[C@@H](Cc1c[nH]c2ccccc12)C(N)=O [YA-144, Ac-(D-Tyr)-Hyp-Asn-Thi-Phe-azaGly-Leu-Arg(Me)-Trp-NH2] (Ac-[dY][Hyp]N[2Thi]F[azaGly]L[Arg(Me)]W-NH2)
15 | 0.034 nM | CNC(=N)NCCC[C@H](NC(=O)[C@H](CC(C)C)NC(=O)NNC(=O)[C@H](Cc1ccccc1)NC(=O)[C@@H](NC(=O)[C@H](CC(N)=O)NC(=O)C1(CNC(=O)[C@@H](Cc2ccc(O)cc2)NC(C)=O)CC1)[C@@H](C)O)C(=O)N[C@@H](Cc1c[nH]c2ccccc12)C(N)=O [YA-145, Ac-D-Tyr-ACPA-Asn-Thr-Phe-azaGly-Leu-Arg(Me)-Trp-NH2] (Ac-[dY][cPrCO(1-aminomethyl)]NTF[azaGly]L[Arg(Me)]W-NH2)
16 | 545 nM | CC(=O)N[C@@H](Cc1ccc(O)cc1)C(=O)N[C@@H](CC(N)=O)C(=O)N[C@@H](Cc1c[nH]c2ccccc12)C(=O)N[C@@]1(C)CCCC=CCCC[C@@](C)(C(=O)N[C@@H](CCCNC(=N)N)C(=O)N[C@@H](Cc2ccccc2)C(N)=O)NC(=O)CNC(=O)[C@H](Cc2ccccc2)NC(=O)[C@H](CO)NC1=O [YA-146, Ac-Tyr-Asn-Trp-X-Ser-Phe-Gly-X-Arg-Phe-NH2 (stapled)] (Ac-YNW[S5]SFG[S5]RF-NH2; staple 4-8)
17 | 0.045 nM | CNC(=N)NCCC[C@H](NC(=O)[C@H](CC(C)C)NC(=O)NNC(=O)[C@H](Cc1ccccc1)NC(=O)[C@@H](NC(=O)[C@H](CC(N)=O)NC(=O)[C@@H]1C[C@@H](O)CN1C(=O)[C@@H](Cc1ccc(O)cc1)NC(=O)CCOCCOCCOCCOCCOCCOCCOCCOCCNC(C)=O)[C@@H](C)O)C(=O)N[C@@H](Cc1c[nH]c2ccccc12)C(N)=O [YA-151, Ac-PEG8-(D-Tyr)-Hyp-Asn-Thr-Phe-azaGly-Leu-Arg (Me)-Trp-NH2] (Ac-[PEG8][dY][Hyp]NTF[azaGly]L[Arg(Me)]W-NH2)
18 | 0.18 nM | CNC(=N)NCCC[C@H](NC(=O)[C@H](CC(C)C)NC(=O)[C@@H]1CCN1C(=O)[C@H](Cc1ccccc1)NC(=O)[C@@H](NC(=O)[C@H](CC(N)=O)NC(=O)[C@@H]1C[C@@H](O)CN1C(=O)[C@@H](Cc1ccc(O)cc1)NC(C)=O)[C@@H](C)O)C(=O)N[C@@H](Cc1c[nH]c2ccccc12)C(N)=O [YA-153, Ac-D-Tyr-Hyp-Asn-Thr-Phe-Aze-Leu-Arg(Me)-Trp-NH2] (Ac-[dY][Hyp]NTF[Aze]L[Arg(Me)]W-NH2)
19 | 0.0478 nM | CCCCCCCCCCCCCCCC(=O)NCCOCCOCCOCCOCCOCCOCCOCCOCCC(=O)NCC(=O)NCC(=O)N[C@@H](Cc1ccc(O)cc1)C(=O)N[C@@H](CC(N)=O)C(=O)N[C@@H](Cc1c[nH]c2ccccc12)C(=O)N[C@@H](CC(N)=O)C(=O)N[C@@H](CO)C(=O)N[C@@H](Cc1ccccc1)C(=O)NCC(=O)N[C@@H](CC(C)C)C(=O)N[C@@H](CCCNC(=N)N)C(=O)N[C@@H](Cc1ccccc1)C(N)=O [YA-158, Palm-PEG8-Gly-Gly-Tyr-Asn-Trp-Asn-Ser-Phe-Gly-Leu-Arg-Phe-NH2]
20 | 1.75 nM | CNC(=N)NCCC[C@H](NC(=O)[C@H](CC(C)C)N(C)C(=O)CCNC(=O)[C@H](Cc1ccccc1)NC(=O)[C@@H](NC(=O)[C@H](CC(N)=O)NC(=O)[C@@H]1C[C@@H](O)CN1C(=O)[C@@H](Cc1ccco1)NC(C)=O)[C@@H](C)O)C(=O)N[C@@H](Cc1c[nH]c2ccccc12)C(N)=O [YA-164, Ac-[3-(2-furyl)-D-Ala]-Hyp-Asn-Thr-Phe-BetaAla-(NMe-Leu)-Arg(Me)-Trp-NH2] (Ac-[dAla(2-furyl)][Hyp]NTF[βAla][NMeL][Arg(Me)]W-NH2)
